Data on nine compounds can be found in patent US11591365B2, “BCL9 peptides and variants thereof” (WntRx Pharmaceuticals Inc., priority 2017, dated 2023).

SMILES strings stand for the structures. Where a SMILES comes first, the peptide text is derived from it. Bridges are numbered along the chain shown (N, C = ends). [ ]: non-standard residue; d: D form. The star is where a group is joined. 2Nal = N[C@@H](Cc1ccc2ccccc2c1)C(=O)O; Palmitoyl = CCCCCCCCCCCCCCCC(=O)*; hArg = N=C(N)NCCCC[C@H](N)C(=O)O; NMeQ = CN[C@@H](CCC(N)=O)C(=O)O; Cba = N[C@@H](CC1CCC1)C(=O)O; PEG4 = NCCOCCOCCOCCOCCC(=O)O; S5 = C=CCCC[C@](C)(N)C(=O)O

For this assay, the system named is Colo320DM. Briefly: Colo320DM cell viability. The format is cell-based, human. An excerpt:
In some embodiments, a polypeptide described herein inhibits binding of BLC9 to β-catenin when assessed in a cell-viability assay. In some embodiments, the cell-viability assay is a CellTiterGlo luminescent assay, wherein the viability of cells is quantitatively measured. Various cell lines, transformed cell lines or primary cells derived from a healthy subject or subject suffering from a disease can be used in this assay.
As usually defined, the IC50 is the concentration at which inhibition is half-maximal. High values mean a need for much substance, low ones inhibition by little substance. As to `CC[C@H](C)[C@@H]1NC(=O)[C@@](C)(NC(=O)[C@H](CCCNC(=N)N)NC(=O)[C@H](CC(C)C)NC(=O)[C@]2(C)CCCC=CCCC[C@](C)(NC(=O)[C@H](CCC(=O)O)NC(=O)[C@H](CCCNC(=N)N)NC(C)=O)C(=O)N[C@@H](CO)C(=O)N[C@@H](CC(C)C)C(=O)N[C@@H](CCC(N)=O)C(=O)N2)CCCC=CCCC[C@@](C)(C(=O)N[C@@H](CC(C)C)C(=O)N[C@@H](Cc2ccc3ccccc3c2)C(N)=O)NC(=O)[C@H](CCCNC(=N)N)NC(=O)[C@H](CCC(N)=O)NC1=O` [SEQ ID NO: 39, REXSLQXLRZIQRZL(2-Nal)] (Ac-RE[S5]SLQ[S5]LR[S5]IQR[S5]L[2Nal]-NH2; staple 3-7, 10-14), the IC50 is 560 nM.
In the case of `CC[C@H](C)[C@@H]1NC(=O)[C@@](C)(NC(=O)[C@H](CCCNC(=N)N)NC(=O)[C@H](CC(C)C)NC(=O)[C@@H](NC(=O)[C@H](CCC(N)=O)NC(=O)[C@H](CC2CCC2)NC(=O)[C@H](CO)NC(=O)[C@H](CCCNC(=N)N)NC(=O)[C@H](CCC(N)=O)NC(=O)[C@H](CCCNC(=N)N)NC(=O)[C@H](Cc2c[nH]cn2)NC(C)=O)[C@@H](C)O)CCCC=CCCC[C@@](C)(C(=O)N[C@@H](CC2CCC2)C(=O)N[C@@H](Cc2ccc3ccccc3c2)C(N)=O)NC(=O)[C@H](CCCNC(=N)N)NC(=O)[C@H](CCC(N)=O)NC1=O` [SEQ ID NO: 156, HRQRS(CBA)QTLRXIQRX(CBA)(2-Nal)] (Ac-HRQRS[Cba]QTLR[S5]IQR[S5][Cba][2Nal]-NH2; staple 11-15), inhibition was half-maximal at 2630 nM (IC50).
In turn, `CC[C@H](C)[C@@H]1NC(=O)[C@@](C)(NC(=O)[C@H](CCCNC(=N)N)NC(=O)[C@H](CC(C)C)NC(=O)[C@@H](NC(=O)[C@H](CCC(N)=O)NC(=O)[C@H](CC(C)C)NC(=O)[C@H](CO)NC(=O)[C@H](CCCNC(=N)N)NC(=O)[C@H](CCC(=O)O)NC(=O)[C@H](CCCNC(=N)N)NC(=O)[C@H](Cc2c[nH]cn2)NC(=O)[C@H](CCC(=O)O)NC(C)=O)[C@@H](C)O)CCCC=CCCC[C@@](C)(C(=O)N[C@@H](CC(C)C)C(=O)N[C@@H](Cc2ccc3ccccc3c2)C(N)=O)NC(=O)[C@H](CCCNC(=N)N)NC(=O)[C@H](CCC(N)=O)NC1=O` [SEQ ID NO: 7, EHRERSLQTLRXIQRXL(2-Nal)] (Ac-EHRERSLQTLR[S5]IQR[S5]L[2Nal]-NH2; staple 12-16) came in with an IC50 of 9100 nM.
The value for `CC[C@H](C)[C@@H]1NC(=O)[C@@](C)(NC(=O)[C@H](CCCNC(=N)N)NC(=O)[C@H](CC(C)C)NC(=O)[C@@H](NC(=O)[C@]2(C)CCCC=CCCC[C@](C)(NC(=O)[C@H](CCCNC(=N)N)NC(=O)[C@H](Cc3c[nH]cn3)NC(C)=O)C(=O)N[C@@H](CCCNC(=N)N)C(=O)N[C@@H](CO)C(=O)N[C@@H](CC(C)C)C(=O)N2)[C@@H](C)O)CCCC=CCCC[C@@](C)(C(=O)N[C@@H](CC2CCC2)C(=O)N[C@@H](Cc2ccc3ccccc3c2)C(N)=O)NC(=O)[C@H](CCCNC(=N)N)NC(=O)[C@H](CCC(N)=O)NC1=O` [SEQ ID NO: 94, HRXRSLXTLRZIQRZ(CBA)(2-Nal)] (Ac-HR[S5]RSL[S5]TLR[S5]IQR[S5][Cba][2Nal]-NH2; staple 3-7, 11-15) was 3340 nM.
Compound `CC[C@H](C)[C@@H]1NC(=O)[C@@](C)(NC(=O)[C@H](CCCNC(=N)N)NC(=O)[C@H](CC(C)C)NC(=O)[C@@H](NC(=O)[C@H](CCC(N)=O)NC(=O)[C@H](CC(C)C)NC(=O)[C@H](CO)NC(=O)[C@H](CCCCNC(=N)N)NC(=O)[C@H](CCC(N)=O)NC(=O)[C@H](CCCNC(=N)N)NC(=O)[C@H](Cc2c[nH]cn2)NC(C)=O)[C@@H](C)O)CCCC=CCCC[C@@](C)(C(=O)N[C@@H](CC2CCC2)C(=O)N[C@@H](Cc2ccc3ccccc3c2)C(N)=O)NC(=O)[C@H](CCCNC(=N)N)NC(=O)[C@H](CCC(N)=O)NC1=O` [SEQ ID NO: 167, HRQ(homoR)SLQTLRXIQRX(CBA)(2-Nal)] (Ac-HRQ[hArg]SLQTLR[S5]IQR[S5][Cba][2Nal]-NH2; staple 11-15) yielded an IC50 of 4760 nM.
`CCCCCCCCCCCCCCCC(=O)NCCOCCOCCOCCOCCC(=O)N[C@@H](Cc1c[nH]cn1)C(=O)N[C@@H](CCCNC(=N)N)C(=O)N[C@@H](CCC(N)=O)C(=O)N[C@@H](CCCNC(=N)N)C(=O)N[C@@H](CO)C(=O)N[C@@H](CC(C)C)C(=O)N[C@@H](CCC(N)=O)C(=O)N[C@H](C(=O)N[C@@H](CC(C)C)C(=O)N[C@@H](CCCNC(=N)N)C(=O)N[C@@]1(C)CCCC=CCCC[C@@](C)(C(=O)N[C@@H](CC2CCC2)C(=O)N[C@@H](Cc2ccc3ccccc3c2)C(N)=O)NC(=O)[C@H](CCCNC(=N)N)NC(=O)[C@H](CCC(N)=O)NC(=O)[C@H]([C@@H](C)CC)NC1=O)[C@@H](C)O` [SEQ ID NO: 160, HRQRSLQTLRXIQRX(CBA)(2-Nal)] ({Palmitoyl-PEG4}-HRQRSLQTLR[S5]IQR[S5][Cba][2Nal]-NH2; staple 11-15) came in with a half-maximal inhibitory concentration (IC50) of 830 nM.
Compound `CC[C@H](C)[C@@H]1NC(=O)[C@@](C)(NC(=O)[C@H](CCCNC(=N)N)NC(=O)[C@H](CC(C)C)NC(=O)[C@@H](NC(=O)[C@H](CCC(N)=O)N(C)C(=O)[C@H](CC(C)C)NC(=O)[C@H](CO)NC(=O)[C@H](CCCNC(=N)N)NC(=O)[C@H](CCC(N)=O)NC(=O)[C@H](CCCNC(=N)N)NC(=O)[C@H](Cc2c[nH]cn2)NC(C)=O)[C@@H](C)O)CCCC=CCCC[C@@](C)(C(=O)N[C@@H](CC2CCC2)C(=O)N[C@@H](Cc2ccc3ccccc3c2)C(N)=O)NC(=O)[C@H](CCCNC(=N)N)NC(=O)[C@H](CCC(N)=O)NC1=O` [SEQ ID NO: 153, HRQRSL(N-methylQ)TLRXIQRX(CBA)(2-Nal)] (Ac-HRQRSL[NMeQ]TLR[S5]IQR[S5][Cba][2Nal]-NH2; staple 11-15; N-terminus and C-terminus assumed) yielded an IC50 of 2560 nM.
Consider `CC[C@H](C)[C@@H]1NC(=O)[C@@](C)(NC(=O)[C@H](CCCNC(=N)N)NC(=O)[C@H](CC(C)C)NC(=O)[C@@H](NC(=O)[C@H](CCC(N)=O)NC(=O)[C@H](CC(C)C)NC(=O)[C@H](CO)NC(=O)[C@H](CCCNC(=N)N)NC(=O)[C@H](CCC(=O)O)NC(=O)[C@H](CCCNC(=N)N)NC(C)=O)[C@@H](C)O)CCCC=CCCC[C@@](C)(C(=O)N[C@@H](CC2CCC2)C(=O)N[C@@H](Cc2ccc3ccccc3c2)C(N)=O)NC(=O)[C@H](CCCNC(=N)N)NC(=O)[C@H](CCC(N)=O)NC1=O` [SEQ ID NO: 13, RERSLQTLRXIQRX(CBA)(2-Nal)] (Ac-RERSLQTLR[S5]IQR[S5][Cba][2Nal]-NH2; staple 10-14), for which the half-inhibitory concentration (IC50) was 1610 nM.
Take `CC[C@H](C)[C@@H]1NC(=O)[C@@](C)(NC(=O)[C@H](CCCCNC(=N)N)NC(=O)[C@H](CC(C)C)NC(=O)[C@@H](NC(=O)[C@H](CCC(N)=O)NC(=O)[C@H](CC(C)C)NC(=O)[C@H](CO)NC(=O)[C@H](CCCNC(=N)N)NC(=O)[C@H](CCC(N)=O)NC(=O)[C@H](CCCNC(=N)N)NC(=O)[C@H](Cc2c[nH]cn2)NC(C)=O)[C@@H](C)O)CCCC=CCCC[C@@](C)(C(=O)N[C@@H](CC2CCC2)C(=O)N[C@@H](Cc2ccc3ccccc3c2)C(N)=O)NC(=O)[C@H](CCCNC(=N)N)NC(=O)[C@H](CCC(N)=O)NC1=O` [SEQ ID NO: 170, HRQRSLQTL(homoR)XIQRX(CBA)(2-Nal)] (Ac-HRQRSLQTL[hArg][S5]IQR[S5][Cba][2Nal]-NH2; staple 11-15): it took 5170 nM to reach half-maximal inhibition (IC50).
